Laboratory results as given in ChEMBL document CHEMBL1201862, “PubChem BioAssay data set” (2004).
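Each compound was tested at five concentrations against cells in 96-well plates for 48 hours. At the GI50, growth is halved.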 Activity calls are given as the source filed them. No stated cut-off is given here; in the data, active = GI50 up to about 1.1 µM and inactive = higher.

How the values were obtained:
Test in all cases: NCI anticancer screen, dose series, 48 h
[1] = test system: HOP-18
[2] = test system: SNB-78
[3] = test system: XF498
[4] = test system: M19-MEL
[5] = test system: KM-20L2
[6] = test system: DLD-1
[7] = test system: RXF 631
[8] = test system: LXFL 529
[9] = test system: DMS-273

Compound	GI50 [1]	GI50 [2]	GI50 [3]	GI50 [4]	GI50 [5]	GI50 [6]	GI50 [7]	GI50 [8]	GI50 [9]
O=[N+]([O-])c1cccnc1S(=O)(=O)c1ccccc1	12.9 µM (inactive)	11.2 µM (inactive)	13.1 µM (inactive)	13.5 µM (inactive)	12.8 µM (inactive)	2.49 µM (inactive)	2.86 µM (inactive)	2.4 µM (inactive)	7.87 µM (inactive)
CN(O)C(=O)Cc1ccccc1	–	> 100 µM (inactive)	> 100 µM (inactive)	> 100 µM (inactive)	> 100 µM (inactive)	> 100 µM (inactive)	–	> 100 µM (inactive)	> 100 µM (inactive)
O=C(CC1=Nc2nnc(CCCCCCCc3nnc4n3C(=O)C(CC(=O)c3ccccc3)=N4)n2C1=O)c1ccccc1	> 100 µM (inactive)	–	> 100 µM (inactive)	> 100 µM (inactive)	> 100 µM (inactive)	> 100 µM (inactive)	–	> 100 µM (inactive)	–
COCOC1CCCC[C@@]1(OCCOCCO[C@@]1(c2ccccc2)CCCC[C@H]1OCOC)c1ccccc1 (stereo not given in full)	> 100 µM (inactive)	55.3 µM (inactive)	> 100 µM (inactive)	> 100 µM (inactive)	> 100 µM (inactive)	> 100 µM (inactive)	–	> 100 µM (inactive)	> 100 µM (inactive)
CC(C)/C=C1\CCC(CN(C)C)C1=O (stereo not given)	3.36 µM (inactive)	4.51 µM (inactive)	1.91 µM (inactive)	9.27 µM (inactive)	9.75 µM (inactive)	1.67 µM (inactive)	–	1.5 µM (inactive)	–
COc1ccc([C@H]2c3cc4c(cc3OC(O)(CO)[C@H]2C(=O)O)OCO4)c(OC)c1.COc1ccc([C@H]2c3cc4c(cc3OC3(O)COC(=O)[C@@H]23)OCO4)c(OC)c1 (stereo not given in full)	> 100 µM (inactive)	> 100 µM (inactive)	> 100 µM (inactive)	61.7 µM (inactive)	> 100 µM (inactive)	91.8 µM (inactive)	–	> 100 µM (inactive)	> 100 µM (inactive)
C[n+]1c2ccccc2cc2c(CNC(CCCNC(=N)N)C(=O)O)cccc21 (stereo not given)	2.05 µM (inactive)	2.31 µM (inactive)	2.07 µM (inactive)	0.413 µM (active)	0.641 µM (active)	0.351 µM (active)	3.37 µM (inactive)	0.733 µM (active)	1.59 µM (inactive)
OC1=CN=C(c2ccccc2)Oc2ccccc21	–	80.4 µM (inactive)	–	> 100 µM (inactive)	> 100 µM (inactive)	> 100 µM (inactive)	> 100 µM (inactive)	> 100 µM (inactive)	> 100 µM (inactive)
COC(=O)N/N=C(\C)C(CN1CCCCC1)C(C1=C(O)c2ccccc2OC1)c1ccccc1 (stereo not given)	> 100 µM (inactive)	> 100 µM (inactive)	> 100 µM (inactive)	> 100 µM (inactive)	> 100 µM (inactive)	> 100 µM (inactive)	–	> 100 µM (inactive)	> 100 µM (inactive)
CCOC(=O)C=C1CCN(C(=O)c2ccccc2)CC1	> 100 µM (inactive)	> 100 µM (inactive)	> 100 µM (inactive)	> 100 µM (inactive)	> 100 µM (inactive)	> 100 µM (inactive)	> 100 µM (inactive)	> 100 µM (inactive)	> 100 µM (inactive)
Cc1ccc(NC(=O)CSc2nnc(-c3ccc(/N=C\c4ccc(Cl)cc4)cc3)o2)cc1	> 100 µM (inactive)	> 100 µM (inactive)	> 100 µM (inactive)	> 100 µM (inactive)	> 100 µM (inactive)	–	–	> 100 µM (inactive)	> 100 µM (inactive)
O=S(=O)(C1=CC(S(=O)(=O)c2ccccc2)CN(Cc2ccccc2)C1c1cccc2ccccc12)c1ccccc1 (stereo not given)	–	> 69 µM (inactive)	–	> 69 µM (inactive)	> 69 µM (inactive)	> 69 µM (inactive)	> 69 µM (inactive)	–	> 69 µM (inactive)
N/C(=N\O)N/N=C\c1ccc(O)c(O)c1O	> 100 µM (inactive)	> 51.3 µM (inactive)	> 100 µM (inactive)	20.1 µM (inactive)	26.7 µM (inactive)	23.8 µM (inactive)	–	–	13.6 µM (inactive)
O=C(Nc1ccc2[nH]c3c(-c4ccccc4)nccc3c2c1)c1ccccc1[N+](=O)[O-]	> 100 µM (inactive)	5.47 µM (inactive)	3.59 µM (inactive)	–	1.74 µM (inactive)	–	3.81 µM (inactive)	6.52 µM (inactive)	1.76 µM (inactive)
C/C(=C\CNc1ncnc2c1ncn2C1CCCCO1)COP(=O)(O)O (stereo not given)	> 100 µM (inactive)	> 100 µM (inactive)	> 100 µM (inactive)	> 100 µM (inactive)	> 100 µM (inactive)	> 100 µM (inactive)	> 100 µM (inactive)	> 100 µM (inactive)	> 100 µM (inactive)
N=C(N)NNC(=O)CCn1[nH]c(=O)c(Cl)c(Cl)c1=O	> 100 µM (inactive)	–	> 100 µM (inactive)	> 100 µM (inactive)	> 100 µM (inactive)	> 100 µM (inactive)	> 100 µM (inactive)	> 100 µM (inactive)	> 100 µM (inactive)
CC(O)C(N/C=C1/N=C(c2ccccc2)OC1=O)C(=O)O (stereo not given)	> 100 µM (inactive)	> 100 µM (inactive)	> 100 µM (inactive)	> 100 µM (inactive)	> 100 µM (inactive)	> 100 µM (inactive)	> 100 µM (inactive)	> 100 µM (inactive)	> 100 µM (inactive)
CC(=O)OC1CCn2nnc(CO[Si](C)(C)C(C)(C)C)c21 (stereo not given)	> 100 µM (inactive)	–	> 100 µM (inactive)	–	> 100 µM (inactive)	> 100 µM (inactive)	–	> 100 µM (inactive)	> 100 µM (inactive)
COC(=O)C(C)NP(=O)(N1CC1)N1CC1 (stereo not given)	–	> 100 µM (inactive)	> 100 µM (inactive)	–	> 100 µM (inactive)	> 100 µM (inactive)	> 100 µM (inactive)	> 100 µM (inactive)	91 µM (inactive)
O=c1[nH]c(=O)n(C2CC(O)C(CO)O2)cc1C#Cc1ccc(F)cc1 (stereo not given)	> 100 µM (inactive)	> 100 µM (inactive)	> 100 µM (inactive)	> 100 µM (inactive)	> 100 µM (inactive)	> 100 µM (inactive)	–	> 100 µM (inactive)	> 100 µM (inactive)
O=[N+]([O-])C=C(c1ccc(Cl)cc1)c1ccc(Cl)cc1	–	18.2 µM (inactive)	–	–	18.9 µM (inactive)	13.9 µM (inactive)	–	15.1 µM (inactive)	5.69 µM (inactive)
CCOC(=O)c1nc(C)oc1C(F)(F)F	–	> 100 µM (inactive)	> 100 µM (inactive)	> 100 µM (inactive)	> 100 µM (inactive)	> 100 µM (inactive)	–	> 100 µM (inactive)	–
C=C=C(CC)C(C(=O)OC)N(CC)CC (stereo not given)	> 100 µM (inactive)	> 100 µM (inactive)	> 100 µM (inactive)	> 100 µM (inactive)	> 100 µM (inactive)	> 100 µM (inactive)	> 100 µM (inactive)	> 100 µM (inactive)	–
O=C1OC(c2ccccc2)=N/C1=C\c1ccc2ccccc2c1	> 100 µM (inactive)	> 100 µM (inactive)	> 100 µM (inactive)	> 100 µM (inactive)	> 100 µM (inactive)	> 100 µM (inactive)	–	–	–
O=C1[C@@H]2C(c3ccncc3)=NO[C@@H]2C(=O)N1c1ccc(Cc2ccc(N3C(=O)[C@H]4C(c5ccncc5)=NO[C@H]4C3=O)cc2)cc1	> 100 µM (inactive)	> 100 µM (inactive)	–	> 100 µM (inactive)	> 100 µM (inactive)	> 100 µM (inactive)	> 100 µM (inactive)	29.3 µM (inactive)	> 100 µM (inactive)
